Measured values: patent publication US20250281607A1, “MEDICAMENT FOR TREATMENT AND/OR PREVENTION OF CANCER” (TORAY INDUSTRIES, INC., priority 2021, published 2025)

Columns and labels:
[1] = tested on: lung cancer cell line A549; assay: THP-1-mediated phagocytic activity against A549 (Example 2); format: cell-based, human; conditions: cells cultured 2 days with drug at 250 nM, then anti-CAPRIN-1 humanized antibody #1 5 μg/mL, FIG. 1
Description: (§1) Specifically, in each combination test group (a trametinib combination test group, a fluorouracil combination test group and an irinotecan combination test group), the indicated drug used in combination was applied to human cancer cells, and then the cancer cells were cocultured with human monocytic cells (THP-1) in the presence of the anti-CAPRIN-1 antibody, and the antibody-mediated phagocytic activity against the cancer cells by THP-1 was evaluated. The human-derived cancer cells used were melanoma cell line A375 (used only in the trametinib combination test group), colon cancer cell line HCT116, prostate cancer cell line DU145 (used only in the trametinib combination test group), and lung cancer cell line A549 (used only in the trametinib combination test group). […]
(§2) Each cancer cell line after the culture was dissociated with TrypLE Express (Thermo), and the cancer cells were stained by the addition of calcein-AM at a final concentration of 0.02 μg/mL and incubation at 37° C. for 30 minutes. […] Further, dead cells were stained with propidium iodide (PI) (final concentration: 0.1 μg/mL), followed by the measurement of fluorescence from the cells by flow cytometry. […] Thus, the phagocytic activity in this evaluation system was calculated as the ratio (%) of APC-positive/calcein-AM-positive cells to the whole calcein-AM-positive population.

[2] = tested on: colon cancer cell line HCT116; assay: THP-1-mediated phagocytic activity against HCT116 (Example 2); format: cell-based, human; conditions: cells cultured 2 days with drug at 50 nM, then anti-CAPRIN-1 humanized antibody #1 5 μg/mL, FIG. 1, 2
Description: as §1, with “group). On a 6-well plate, the human-derived cancer cells were cultured for 2 days in the presence of trametinib for the trametinib combination test group, and cultured for 2 days in the presence of the each drug used in combination for the fluorouracil combination test group and the irinotecan combination test group. The concentration of the drug used in combination was set to a concentration that decreased the proliferation rate of the cancer cells by about half at the completion of culture.” for “group).”
as §2

[3] = tested on: prostate cancer cell line DU145; assay: THP-1-mediated phagocytic activity against DU145 (Example 2); format: cell-based, human; conditions: cells cultured 2 days with drug at 250 nM, then anti-CAPRIN-1 humanized antibody #1 5 μg/mL, FIG. 1
Description: as §1, §2

[4] = trametinib in itself (therefore also used as DMSO solvate); cited from earlier work
melanoma cell line A375 = assay: THP-1-mediated phagocytic activity against A375 (Example 2); format: cell-based, human; conditions: cells cultured 2 days with drug at 50 nM, then anti-CAPRIN-1 humanized antibody #1 5 μg/mL, FIG. 1
Description: as §1, §2

With `CC(=O)Nc1cccc(-n2c(=O)n(C3CC3)c(=O)c3c(Nc4ccc(I)cc4F)n(C)c(=O)c(C)c32)c1` [trametinib, N-[3-[3-cyclopropyl-5-(2-fluoro-4-iodoanilino)-6,8-dimethyl-2,4,7-trioxopyrido[4,3-d]pyrimidin-1-yl]phenyl]acetamide] the “phagocytic activity against cancer cells” value [1] was 7%, the “phagocytic activity against cancer cells” value [2] was 45% and the “phagocytic activity against cancer cells” value [3] was 9%. For the same compound, the solubility [4] was “poorly soluble” and the “phagocytic activity against cancer cells” value (melanoma cell line A375) was 49%.
